Test results as given in patent US20070265208A1, “Association of calpain inhibitors and reactive oxygen species trapping agents” (priority 2000, published 2007).

Legend:
Type in all cases: cell-based
[1] = system: calpain activity in rat glial cells (C6); test: In situ calpain activity in rat glial cells C6 stimulated by maitotoxin; conditions: read-out: Inhibition human calpain I, in situ (C6) [IC50 (nM)]; n = 3; maitotoxin 1 nM; 1 h 30 min
Description: (§1) Human neuroblastomas SHSY5Y and rat glial cells C6 are seeded at a rate of 50,000 and 25,000 cells respectively per well on 96-well plates in DMEM 10% FBS. The next day, the cells which have adhered are washed 3 times in DMEM medium without serum and 40 mM Hepes. 100 microlitres of product B is placed in the wells. After incubation for 1 hour at 37° C. under an atmosphere of 5% CO2, 10 μl containing the fluorescent substrate of calpain (Suc-Leu-Tyr-AMC) and maitotoxin (Sigma, ref: M-9159), in order to obtain a final concentration in the well of 100 μM and of 1 nM respectively are added.
(§2) In order to determine the total activity of the cell enzyme, wells containing no product are added to the plate (100 μL DMSO 100th plus 10 μl of MTX and substrate). The background noise is determined by adding control wells with no MTX. Each concentration of the products (0.3 μM to 200 μM for the SHSY5Y's and 0.01 μM to 100 μM for the C6's) is tested in triplicate. The plates are shaken, the fluorescence is read at 380/460 nm using the Victor at T zero. Incubation takes place for four hours for the SHSY5Y and 1 hour 30 minutes for the C6 cells at 30° C. in darkness.

rat glial cells C6 = test: Protection from necrosis induced by maitotoxin, C6 (wst-1 viability); conditions: single product at 50 μM, n = 3 for Example 2, else n = 1
Description: Human neuroblastomas SHSY5Y and rat glial cells C6 are seeded at 25 000 cells per well in 96-well plates in DMEM 10% FBS for 24 hours. The L6 rat myoblasts are seeded at 1000 cells per well in DMEM 10% FBS on 96-well microplates coated beforehand with gelatin 0.5% PBS. After culture for 3 days the medium is removed and replaced with a differentiation medium (DMEM+10 μg/ml of insulin+100 μg/ml of transferrin). 50 μl of product A plus 50 μl of solvent or 50 μl of product B are placed in the wells. After incubation for 1 hour at 37° C. under an atmosphere of 5% CO2, 10 μl of maitotoxin is added in order to obtain a final concentration of 0.1 nM to 1 nM (according to the cell type). After incubation for 3 hours at 37° C. under an atmosphere of 5% CO2, the cell viability is determined by adding 10 μl of tetrazolium salts (wst-1, Roche, ref: 1644807). The tetrazolium salts are cleaved into formazan molecules by mitochondrial dehydrogenases. The quantity of formazan formed is directly correlated to the number of metabolically active cells in the culture. Measurement of the absorbance of the formazan is carried out using a multiwell photometer at a wavelength of 420 nm against a reference wavelength of 620 nm.
The theoretical effect was obtained by multiplying the percentage of dead cells in the presence of product A by the percentage of dead cells in the presence of product B (Table 3). The percentage protection against cell death induced by MTX being the percentage of cells kept alive in the presence of the product or products.
In the light of the previous results, the combination of Example 1 with product A and product B at a rate of 100 μM of each of the products is carried out on human neuroblastomas (SHSY5Y; (Table 5A) and on glial cells with 25 μM of product A and 50 μM of product B (C6; Table 5B) on a larger number of cases.

[2] = system: calpain activity in human neuroblastomas (SHSY5Y); test: In situ calpain activity in human neuroblastomas SHSY5Y stimulated by maitotoxin; conditions: read-out: Inhibition human calpain I, in situ (SHSY5Y) [IC50 (nM)]; n = 6; maitotoxin 1 nM; 4 h
Description: as §1, §2

With `CC(C)C[C@@H](C=O)NC(=O)[C@H](CC(C)C)NC(=O)OCc1ccccc1` [EXAMPLE 1 B, benzyl (1S)-1-({[(1S)-1-formyl-3-methylbutyl]amino}carbonyl)-3-methylbutylcarbamate] as the molecule, how does the IC50 [1] read?
Its IC50 is 1750 ± 340 nM.

And the “Protection from necrosis induced by MTX on C6” value (“Protection” below) (rat glial cells C6)?
The value was 9.63%.

And the “Protection” value (rat glial cells C6; listed as EXAMPLE 6 B)?
The value was 4.91%.

What about the “Protection” value (rat glial cells C6; listed as Z-Leu-Leu-H) of the same molecule?
The value was “not active”.

And the IC50 [2]?
Its IC50 is 13400 ± 2390 nM.
